The target of experiment [1] is T1, High affinity choline transporter 1 (Homo sapiens, UniProt Q9GZV3).
T1 sequence (Q9GZV3 whole entry): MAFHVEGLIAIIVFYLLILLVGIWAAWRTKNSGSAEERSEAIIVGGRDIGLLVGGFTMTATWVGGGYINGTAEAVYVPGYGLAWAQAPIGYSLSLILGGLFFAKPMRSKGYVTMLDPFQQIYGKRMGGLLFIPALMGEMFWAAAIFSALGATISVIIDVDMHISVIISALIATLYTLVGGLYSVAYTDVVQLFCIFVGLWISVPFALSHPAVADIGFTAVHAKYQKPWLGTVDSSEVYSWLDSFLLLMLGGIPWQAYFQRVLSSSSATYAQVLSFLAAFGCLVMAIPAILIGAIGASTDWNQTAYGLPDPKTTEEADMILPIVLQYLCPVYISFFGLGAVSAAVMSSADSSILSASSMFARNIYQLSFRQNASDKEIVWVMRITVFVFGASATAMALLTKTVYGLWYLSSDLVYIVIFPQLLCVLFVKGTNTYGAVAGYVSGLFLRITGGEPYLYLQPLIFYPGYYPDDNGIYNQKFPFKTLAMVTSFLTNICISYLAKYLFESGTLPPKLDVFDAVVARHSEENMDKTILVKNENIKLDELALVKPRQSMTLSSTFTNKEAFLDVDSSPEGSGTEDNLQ
Briefly: CHT inhibitors, dose response, cell-based, 5-point CRC, membrane potential dye (AID 504840). Type of experiment: functional.

The target in another experiment is Cytochrome P450 2D6 (Homo sapiens, UniProt P10635).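 Further: CYP2D6 member of a cytochrome P450 panel assay.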
Chain of Cytochrome P450 2D6 (P10635 whole entry): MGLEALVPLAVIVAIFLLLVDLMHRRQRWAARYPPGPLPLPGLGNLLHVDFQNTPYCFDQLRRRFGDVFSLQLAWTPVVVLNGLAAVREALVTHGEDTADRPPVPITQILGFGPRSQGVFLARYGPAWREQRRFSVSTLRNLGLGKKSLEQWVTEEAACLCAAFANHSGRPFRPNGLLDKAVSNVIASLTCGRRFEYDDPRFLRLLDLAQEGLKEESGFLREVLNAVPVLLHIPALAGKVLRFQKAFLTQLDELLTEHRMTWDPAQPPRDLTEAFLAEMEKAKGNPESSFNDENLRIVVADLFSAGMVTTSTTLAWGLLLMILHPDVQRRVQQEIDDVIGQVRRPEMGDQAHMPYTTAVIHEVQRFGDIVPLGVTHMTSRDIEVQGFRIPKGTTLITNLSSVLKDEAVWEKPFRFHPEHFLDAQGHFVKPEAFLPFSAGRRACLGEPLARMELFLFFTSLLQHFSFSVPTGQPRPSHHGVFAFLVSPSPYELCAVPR
The target of a further experiment is T2, Protein skinhead-1 (Caenorhabditis elegans, UniProt P34707).
T2 sequence (P34707 whole entry): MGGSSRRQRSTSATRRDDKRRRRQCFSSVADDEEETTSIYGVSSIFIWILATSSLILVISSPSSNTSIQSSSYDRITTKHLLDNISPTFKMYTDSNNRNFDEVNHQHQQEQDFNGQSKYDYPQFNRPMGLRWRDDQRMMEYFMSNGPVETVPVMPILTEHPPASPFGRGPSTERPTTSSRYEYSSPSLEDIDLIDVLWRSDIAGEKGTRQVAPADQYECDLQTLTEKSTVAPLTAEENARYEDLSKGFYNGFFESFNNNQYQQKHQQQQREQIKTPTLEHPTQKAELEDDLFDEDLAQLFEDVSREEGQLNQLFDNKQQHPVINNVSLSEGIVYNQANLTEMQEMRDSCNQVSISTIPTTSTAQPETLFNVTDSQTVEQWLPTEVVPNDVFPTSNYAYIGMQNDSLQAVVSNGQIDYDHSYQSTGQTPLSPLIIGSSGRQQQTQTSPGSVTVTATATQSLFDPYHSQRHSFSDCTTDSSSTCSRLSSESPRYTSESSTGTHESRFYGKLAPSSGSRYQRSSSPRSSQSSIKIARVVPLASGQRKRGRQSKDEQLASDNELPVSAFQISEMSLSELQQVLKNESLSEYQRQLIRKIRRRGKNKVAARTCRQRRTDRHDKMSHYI
Type of experiment: functional.

Experiment [2] has as its system Streptococcus sp. 'group A'. Briefly: growth inhibition of control SK(-) GAS strain, dose response, counter-screen for streptokinase expression inhibitor project, luminescence, kanamycin, BacTiterGlo, confirmation (AID 1900). Type of experiment: functional, organism-based. On the technique in general: A counterscreen serves to expose hits that act by an unwanted route or on another target.

Experiment [3] can be described thus: THP-1 cell cytotoxicity, dose response, cytotoxicity control for non-replicating M. tuberculosis project (AID 489025). Type of experiment: functional.
A further experiment is described as follows: cells. Type of experiment: functional.
The test system of a further experiment is Streptococcus. Briefly: Group A Streptococcus viability loss, dose response, counter-screen for streptokinase expression inhibitor project, luminescence, BacTiterGlo (AID 1915).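 Further: potency for reduction of bacterial viability or growth.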 The class given is functional, organism-based.
Another experiment has as its system HEK293. As to the kind of experiment: inhibitors of LMP1-driven NF-kB reporter, dose response, cell-based, HEK293, luciferase, cherry-pick (AID 588343). The class given is functional, Homo sapiens. As to conditions: Homo sapiens, HEK293.
The nature of experiment [4]: cytotoxicity toward DRD oncogenic fibroblasts, dose response, cell-based, non-viral oncogenic, luminescence (AID 1934). The class given is functional. The settings on record: Homo sapiens.
Experiment [5] deals with BJ. As to the kind of experiment: cells. Type of experiment: functional, cell-based. The settings on record: Homo sapiens.
For experiment [6], the system named is BJ. As to the kind of experiment: cytotoxicity toward BJ-TERT fibroblasts, dose response, cell-based, RAS-independent, luminescence (AID 1933). The class given is functional. As to conditions: Homo sapiens.
In experiment [7] the test system is BJ. Briefly: cytotoxicity toward BJ-TERT-LT-ST fibroblasts, dose response, cell-based, RAS-independent, luminescence (AID 1935).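 Further: BJ fibroblasts immortalized with TERT plus LT and ST oncogenes.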 Type of experiment: functional. The settings on record: Homo sapiens.
Experiment [8] addresses T3, Heat shock factor protein 1 (Mus musculus, UniProt P38532).
T3 sequence (P38532 whole entry): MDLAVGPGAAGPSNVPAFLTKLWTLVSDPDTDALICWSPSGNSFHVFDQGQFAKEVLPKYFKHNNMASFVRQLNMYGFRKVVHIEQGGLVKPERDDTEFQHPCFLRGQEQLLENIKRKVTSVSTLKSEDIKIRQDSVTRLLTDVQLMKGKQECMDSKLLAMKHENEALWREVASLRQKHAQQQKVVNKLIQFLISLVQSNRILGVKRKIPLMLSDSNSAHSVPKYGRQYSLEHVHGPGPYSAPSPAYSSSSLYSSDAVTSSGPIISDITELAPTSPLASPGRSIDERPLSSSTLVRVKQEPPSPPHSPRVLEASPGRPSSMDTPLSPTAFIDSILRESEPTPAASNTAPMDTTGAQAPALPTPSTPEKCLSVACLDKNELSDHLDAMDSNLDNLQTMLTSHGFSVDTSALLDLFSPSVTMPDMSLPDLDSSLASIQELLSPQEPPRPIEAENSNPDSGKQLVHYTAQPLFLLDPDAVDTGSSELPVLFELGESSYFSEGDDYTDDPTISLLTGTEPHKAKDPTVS
Briefly: HSF1 potentiators in luciferase reporter cells, confirmation, cell-based, NIH3T3, luminescence, dose retest (AID 435004).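 Further: stress induced by proteasome inhibitor MG132 added 30 min after compound; luciferase reporter driven by HSF1 response element in NIH3T3 cells; actives raise luminescence as potentiators of the MG132 stress response.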 Type of experiment: functional. A general note: In a reporter assay the amount or activity of a reporter protein is the signal.

The target of experiment [9] is Luciferin 4-monooxygenase (Photinus pyralis, UniProt P08659). As to the kind of experiment: firefly luciferase enzyme inhibitors, dose response, biochemical, luminescence (AID 1891).
Chain of Luciferin 4-monooxygenase (P08659 whole entry): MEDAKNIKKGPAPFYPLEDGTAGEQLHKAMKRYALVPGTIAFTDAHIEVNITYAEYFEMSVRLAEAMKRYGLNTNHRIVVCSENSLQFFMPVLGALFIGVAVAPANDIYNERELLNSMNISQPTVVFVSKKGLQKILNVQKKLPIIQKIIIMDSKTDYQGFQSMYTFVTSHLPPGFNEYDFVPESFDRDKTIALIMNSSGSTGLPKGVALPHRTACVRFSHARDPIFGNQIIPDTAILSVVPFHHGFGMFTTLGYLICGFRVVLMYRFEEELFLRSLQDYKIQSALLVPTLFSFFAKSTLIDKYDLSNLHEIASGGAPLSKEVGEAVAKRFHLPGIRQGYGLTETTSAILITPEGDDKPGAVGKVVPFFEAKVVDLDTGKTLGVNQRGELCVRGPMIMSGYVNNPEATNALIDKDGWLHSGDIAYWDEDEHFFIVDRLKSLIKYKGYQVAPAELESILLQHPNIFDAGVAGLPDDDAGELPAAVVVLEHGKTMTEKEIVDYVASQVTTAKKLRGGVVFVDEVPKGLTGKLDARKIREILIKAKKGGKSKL
The nature of experiment [10]: Luminescence Cell-Based Dose Confirmation HTS to Identify Inhibitors of Platelet Dense Granule Release. [Related pubchem assays: 1663 (Primary HTS), 1678 (Summary of Project)]. Type of experiment: functional.
Experiment [11] in a line: P. falciparum Dd2 growth inhibitors, dose response, SYBR Green, cherry-picked samples (AID 1159567). The class given is functional, cell-based.

Activity calls are given as the source filed them.

Turning to `CC(C)NC[C@H](O)c1ccc(O)c(O)c1`, the IC50 (as a rule, the concentration needed to halve the response being measured) in experiment [1] is 4.17e-05 µM (inconclusive).

With `CN(CCC#N)c1ncnc2scc(-c3ccccc3)c12`, the IC50 in experiment [1] was 12.3 µM (active).

In the case of `C=CCNc1nc(-c2ccc(Cl)cc2)cs1`, the concentration at half-maximal activity (AC50) – broadly, the concentration at which the activity in the assay is half-maximal – on Cytochrome P450 2D6 was 25.1 µM (inconclusive). Further, the IC50 on Protein skinhead-1 was > 100 µM (inactive).

As for `Cc1cccc(Cn2c(Sc3nc(C)cs3)nc3c2c(=O)[nH]c(=O)n3C)c1`, on Protein skinhead-1, the IC50 was > 100 µM (inactive).

For `CCN1CCn2c3c(c4cc(Cl)ccc42)CCCC31` (configuration not stated), the IC50 in [1] is 3.31 µM (active).

With `O=C(Nc1nnc(-c2ccco2)o1)c1ccc(Cl)s1`, the EC50 (usually the concentration giving half of the maximal effect) was 3.01 µM (active) in experiment [2] and 10.1 µM (active) in the experiment with Streptococcus. Also, the CC50 (commonly the concentration that lowers cell viability or growth by half) in experiment [3] is > 40 µM (active). For the same compound, the IC50 in the experiment “cells” is 1.57 µM (active).

Turning to `CC(C)(C)CC(C)(C)N=C(S)Nc1ccc2nc(-c3ccccn3)c(-c3ccccn3)nc2c1`, the IC50 in experiment [1] was 26.3 µM (active).

As to `CCN1CCn2c3c(c4cccc(C)c42)CCCC31` (configuration not stated), the IC50 in experiment [1] was 14.5 µM (active).

Regarding `Cc1cc2cc(CN(Cc3ccco3)S(=O)(=O)c3c(C)ccc4nsnc34)c(O)nc2cc1C`, in the experiment on HEK293, the AC50 was 0.968 µM (active).

Turning to `CC(C)c1ccc(NC(=O)NCc2cccnc2)cc1`, the IC50 on Protein skinhead-1 was > 100 µM (inactive).

`CCN1C/C(=C/c2ccc(N3CCOCC3)cc2)C(=O)/C(=C/c2ccc(N3CCOCC3)cc2)C1`: the half-maximal effective concentration (EC50) was 5.96 µM (active) in experiment [4], 11 µM (inconclusive) in the experiment on BJ [5], 7.89 µM (active) in the experiment on BJ [6] and 5.64 µM (active) in the experiment with BJ [7].

As for `CCC(NC(=O)CCc1nnc(-c2cc(C)on2)o1)C12CC3CC(CC(C3)C1)C2` (configuration not stated), the IC50 in [1] is 14.5 µM (active).

Take `Cc1cc(NC(=O)CSc2nc(-c3ccco3)cc(C(F)(F)F)n2)n(-c2ccccc2)n1`: the EC50 in experiment [4] was 14.9 µM (active); with BJ [5], 64.5 µM (inconclusive); with BJ [6], 17.6 µM (inconclusive); in the experiment on BJ [7], > 75 µM (not active).

On to `O=C1C2CCCN2c2ccc(S(=O)(=O)N3CCOCC3)cc2N1Cc1ccccc1F` (configuration not stated), for which the AC50 in the experiment on HEK293 is > 350 µM (inactive).

Consider `COc1cccc(C(=O)O/N=C(\N)c2ccccn2)c1OC`, for which the AC50 with HEK293 is 2.67 µM (active).

On to `O=C(NNc1cc(Cl)cc(Cl)c1)c1cccs1`, for which, in experiment [1], the IC50 was 16.2 µM (active).

As to `COc1ccc(/C=N/Nc2cc(OC)ncn2)cc1`, the values for the EC50 in experiment [8], in experiment [9] and in experiment [10] were > 260 µM (inactive), 6.11 µM (active) and 5.24 µM (active), respectively. Further, in the experiment on HEK293, the AC50 is 11.2 µM (active).

Regarding `COC(=O)C1=C(C)N=C(C)/C(=C(/O)OC)C1c1ccc(OC(=O)c2ccco2)cc1` (configuration not stated), the IC50 at Protein skinhead-1 is > 100 µM (inactive).

Consider `COc1ccc2c3c([nH]c2c1)[C@@H](CO)N(Cc1cccc(Cl)c1)CC31CN(C(C)=O)C1`, for which the AC50 in [11] was 10.6 µM (active).

Take `COc1ccc2c3c([nH]c2c1)[C@@H](CO)N(C(=O)Cc1ccccc1)CC31CCN(C(=O)Cc2ccccc2)CC1`: the AC50 in experiment [11] was 4.77 µM (active).

As to `CCCC(=O)N1CCC2(CC1)CN[C@@H](CO)c1[nH]c3cc(OC)ccc3c12`, in [11], the AC50 was 6.24 µM (active).

Turning to `CCCNC(=O)N1CCC2(CC1)CN(Cc1cccc(F)c1)[C@@H](CO)c1[nH]c3cc(OC)ccc3c12`, the AC50 in [11] was 10.2 µM (active).

For `C[C@H]1CN([C@@H](C)CO)C(=O)c2c(c3ccccc3n2C)-c2ccccc2CO[C@@H]1CN(C)S(=O)(=O)c1ccccc1F`, the AC50 in [11] was 3.81 µM (active).

For `O=C(Nc1ccccc1)OCCCc1ccccc1` [3-PHENYLPROPYL PHENYLCARBAMATE], the IC50 at Protein skinhead-1 is 68.6 µM (inactive).

These data come from ChEMBL document CHEMBL1201862, “PubChem BioAssay data set” (2004).
